From paper PMC4981696, “Non-target Site Tolerance Mechanisms Describe Tolerance to Glyphosate in Avena sterilis” (Frontiers in Plant Science, 2016)

Experiments:
Experiment in all cases: phosphate release assay (EnzChek phosphate kit)
Conditions in all cases: partially purified leaf extract; 100 mM MOPS, 1 mM MgCl2, 10% glycerol, 2 mM sodium molybdate, 200 mM NaF; glyphosate 0-1000 μM; range is 95% CI; read-out: I50(μM)(95% CI)^a
[1] = molecular target: T1, EPSPS (L. rigidum S population) (Lolium rigidum, UniProt A0A5B9T5S8); format: biochemical
T1 sequence (A0A5B9T5S8 61-505): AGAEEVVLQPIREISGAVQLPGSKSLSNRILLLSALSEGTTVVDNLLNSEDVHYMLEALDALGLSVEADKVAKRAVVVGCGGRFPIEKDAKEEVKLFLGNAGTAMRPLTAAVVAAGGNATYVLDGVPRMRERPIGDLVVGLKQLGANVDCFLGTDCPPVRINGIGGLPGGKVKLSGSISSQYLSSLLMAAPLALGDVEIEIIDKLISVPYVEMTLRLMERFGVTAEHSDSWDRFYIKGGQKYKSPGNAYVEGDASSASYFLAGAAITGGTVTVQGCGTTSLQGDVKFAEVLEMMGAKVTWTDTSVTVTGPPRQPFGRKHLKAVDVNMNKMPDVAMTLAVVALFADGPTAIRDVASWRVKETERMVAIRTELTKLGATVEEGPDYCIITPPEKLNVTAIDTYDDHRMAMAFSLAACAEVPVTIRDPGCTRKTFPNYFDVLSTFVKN
Excerpt: phosphate release assay (EnzChek phosphate kit) on EPSPS (L. rigidum S population)

[2] = tested on: T2, EPSPS (A. sterilis UE accession); format: biochemical, Avena sterilis
T2 construct: homeologous copies not distinguished
Excerpt: phosphate release assay (EnzChek phosphate kit) on EPSPS (A. sterilis UE accession)

[3] = tested on: T3, EPSPS (A. sterilis E accession); format: biochemical, Avena sterilis
T3 construct: homeologous copies not distinguished
Excerpt: phosphate release assay (EnzChek phosphate kit) on EPSPS (A. sterilis E accession)

Compound `O=C(O)CNCP(=O)(O)O` [glyphosate] has an IC50 [1] of 5.1 µM, an IC50 [2] of 42.4 µM and an IC50 [3] of 53.5 µM.
